Source: patent US20060293264A1, “STAT3 decoy oligonucleotides and uses therefor” (priority 2004, published 2006)

What was measured:
[1] = system: Bcl-xL; experiment: Bcl-xL expression by immunoblotting in SCCHN cells in vitro; assay type: cell-based, human; conditions: 1483 cells; 25 μM, 6 days; p<0.0001
Experimental: Immunoblotting. Whole cell extracts were mixed with 2× sodium dodecyl sulfate (SDS) sample buffer (125 mmol/L Tris-HCL, pH 6.8; 4% SDS; 20% glycerol; 10% 2 mercaptoethanol) at 1:1 ratio and were heated for 5 min at 100° C. Proteins (50 μg/lane) were separated by 12.5% SDS-PAGE and transferred onto a nitrocellulose membrane (MSI; Westboro, Mass). Prestained molecular weight markers (GIBCO BRL; Gaithersburg, MD) were included in each gel. Membranes were blocked for 30 min in Tris-buffered saline (TBS: 10 mmol/L Tris-HCL, pH 7.5 and 150 mmol/L NaCl) with 0.5% Tween-20 (TBST) and 5% BSA. […] Quantification of Cyclin D1 and Bcl-xL was performed by using a Molecular Dynamics Personal Densitometer SI and IMAGEQUANT software (Image Products International, Chantilly, Va.). Immunoblotting bands were quantified by densitometry and the Molecular Analyst software (AlphaDigidoc 1000, Alpho-Innotech) with normalization of each band to their corresponding loading control (Xi, S., et al. J Biol Chem, 278: 31574-31583, 2003). […]
As shown above, treatment with the STAT3 decoy abrogates STAT3 target gene expression in vivo. […] The data were analyzed using parametric analysis of variance of a two-way factorial design. […]

[2] = biological target: T1, STAT3 (Homo sapiens, UniProt P40763); experiment: STAT3 activation by EMSA in harvested xenografts; assay type: in vivo; conditions: xenografts harvested 4 hrs after last treatment; p=0.02
T1 construct: Whole cell extracts were prepared and EMSAs performed on 4% native polyacrylamide gels; endogenous in cells; host or cells: whole cell extracts
T1 sequence (P40763 2-770 limits assumed): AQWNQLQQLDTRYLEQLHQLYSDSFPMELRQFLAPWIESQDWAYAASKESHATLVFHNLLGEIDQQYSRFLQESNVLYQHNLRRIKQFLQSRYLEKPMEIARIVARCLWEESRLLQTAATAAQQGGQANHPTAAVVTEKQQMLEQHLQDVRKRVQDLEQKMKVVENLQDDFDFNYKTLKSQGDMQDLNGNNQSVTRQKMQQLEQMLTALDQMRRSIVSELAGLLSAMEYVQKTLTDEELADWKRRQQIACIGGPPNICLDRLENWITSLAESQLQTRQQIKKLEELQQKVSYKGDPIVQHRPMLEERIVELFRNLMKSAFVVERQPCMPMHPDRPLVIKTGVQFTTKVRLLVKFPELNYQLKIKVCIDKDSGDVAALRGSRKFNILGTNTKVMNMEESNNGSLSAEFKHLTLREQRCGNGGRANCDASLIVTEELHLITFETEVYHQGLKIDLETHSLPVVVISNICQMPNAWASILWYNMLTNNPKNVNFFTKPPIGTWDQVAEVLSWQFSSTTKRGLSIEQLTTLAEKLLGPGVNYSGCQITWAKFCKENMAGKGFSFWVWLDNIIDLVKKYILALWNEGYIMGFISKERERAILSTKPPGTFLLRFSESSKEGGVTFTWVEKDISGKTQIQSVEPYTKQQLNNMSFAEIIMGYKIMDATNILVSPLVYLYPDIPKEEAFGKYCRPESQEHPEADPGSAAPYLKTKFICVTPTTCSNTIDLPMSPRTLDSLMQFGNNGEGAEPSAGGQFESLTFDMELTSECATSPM
Experimental: Electrophoretic Mobility Shift Assay (EMSA). Whole cell extracts were prepared and EMSAs performed on 4% native polyacrylamide gels as described (Xi, S., et al. J Biol Chem, 278: 31574-31583, 2003 and Wong, P., etal. Mol Cell Biol, 14. 914-922, 1994). STAT3 activation was evaluated by using binding reactions with 20 μg of extracted protein, and radiolabeled high-affinity serum inducible element (hSIE) duplex oligonucleotide (Wagner et al., EMBO J. 9(13):4477-4484 (1990)). Quantification of the STAT3 signal was performed by scanning the SIF-A band using a Molecular Dynamics Personal Densitometer SI and IMAGEQUANT software. […] For supershift experiments, extracts were preincubated with STAT3 polyclonal antibody (C-20, Santa Cruz Biotechnology). Gel shift bands were quantified by densitometry and the Molecular Analyst software (AlphaDigidoc 1000, Alpha-Innotech) with normalization of each band to the positive control lysate run on that gel as described previously for STAT3 activation determinations (Grandis, J. R. et al. Proc Natl Acad Sci USA, 97: 4227-4232., 2000).
In vivo tumor xenograft studies. Female athymic nude mice nu/nu (4-6 weeks old; 20±2 g; Harlan-Sprague-Dawley) were implanted with 1×10^6 1483 cells into the right and left flank with a 26-gauge needle/1 ml tuberculin syringe, resulting in two tumors per mouse. […]

[3] = system: head and neck squamous cell carcinoma; conditions: dose-dependent; Leong et al. 2003; cited from earlier work

## STAT3 decoy (sense CATTTCCCGTAAATC; antisense GATTTACGGGAAATG; phosphorothioate modified, further chemistry not given here; listed as Homo sapiens)
[1]
  Bcl-xL expression compared with mutant control decoy: decreased
[2]
  STAT3 activation levels compared with mutant control decoy: decreased
[3]
  head and neck squamous cell carcinoma growth in vitro: abrogate
